Read-outs that look alike come from different tables or passages of the source.
Key:
wild type BRAF kinase [1] = target: T1, wild type BRAF kinase (Homo sapiens (Human), UniProt P15056); experiment: biochemical
RAF kinases = RAF kinases (Homo sapiens (Human), UniProt P04049); settings: read-out: RAF1 Kd, class symbols
Experimental: The liganded beads were blocked with excess biotin and washed with blocking buffer (SeaBlock (Pierce), 1% BSA, 0.05% Tween 20, 1 mM DTT) to remove unbound ligand and to reduce non-specific binding. […] Test compounds were prepared as 100× stocks in DMSO and rapidly diluted into the aqueous environment. DMSO was added to control assays lacking a test compound. Primary screen interactions were performed in polypropylene 384-well plates in a final volume of 34 μL, while Kd determinations were performed in polystyrene 96-well plates in a final volume of 135 μL. […] The kinase concentration in the eluates was measured by quantitative PCR. Each kinase was tested individually against each compound. KdS were determined using eleven serial threefold dilutions. A selectivity score, which is a quantitative measure of selectivity of a compound against a panel of enzymes, may be calculated for a compound by dividing the number of enzymes for which a compound meets a set criteria, (for example, a binding constant of 100 nM or less), by the total number of enzymes tested. […] (Note, for those compounds tested in a larger kinase panel, as indicated by an asterisk (*) next to the S35 score, the divisor is 321 (i.e. the larger panel contains 321 distinct kinases, excluding mutant variants.)).

mutant BRAF kinase = mutant BRAF kinase (Homo sapiens (Human), UniProt P15056, V600E); settings: read-out: BRAF V600E Kd, class symbols
[2] = tested on: panel of 290 distinct kinases (321 in the larger panel), excluding mutant variants; settings: kinase selectivity score, class symbols
wild type BRAF kinase [3] = target: T1, wild type BRAF kinase; settings: read-out: BRAF WT Kd, class symbols
[4] = value marked * (larger kinase panel)

Chain of mutant BRAF kinase (P15056 whole entry V600E): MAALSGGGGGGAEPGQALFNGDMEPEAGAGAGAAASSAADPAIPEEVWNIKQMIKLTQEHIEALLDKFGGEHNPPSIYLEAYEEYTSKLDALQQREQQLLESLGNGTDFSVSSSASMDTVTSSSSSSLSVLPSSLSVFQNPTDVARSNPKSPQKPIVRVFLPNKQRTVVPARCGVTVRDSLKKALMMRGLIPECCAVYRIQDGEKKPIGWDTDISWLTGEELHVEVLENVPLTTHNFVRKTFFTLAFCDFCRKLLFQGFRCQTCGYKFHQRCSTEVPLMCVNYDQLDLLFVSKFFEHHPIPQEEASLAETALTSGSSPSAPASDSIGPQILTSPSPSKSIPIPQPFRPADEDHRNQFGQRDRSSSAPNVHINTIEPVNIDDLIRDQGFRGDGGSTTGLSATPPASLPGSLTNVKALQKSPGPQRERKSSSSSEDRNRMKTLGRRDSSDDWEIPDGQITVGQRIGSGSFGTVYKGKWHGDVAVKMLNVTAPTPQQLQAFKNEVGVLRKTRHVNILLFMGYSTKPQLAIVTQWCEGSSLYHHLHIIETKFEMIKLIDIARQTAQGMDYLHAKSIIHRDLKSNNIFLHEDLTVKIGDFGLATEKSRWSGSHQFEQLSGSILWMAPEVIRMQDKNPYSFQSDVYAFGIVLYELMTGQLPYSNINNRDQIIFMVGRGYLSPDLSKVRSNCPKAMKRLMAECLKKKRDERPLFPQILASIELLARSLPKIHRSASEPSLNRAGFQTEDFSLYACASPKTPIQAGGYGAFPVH
T1 sequence (P15056 whole entry): as the sequence (P15056 whole entry V600E) above, with E600V counted along it
Chain of RAF kinases (P04049 whole entry): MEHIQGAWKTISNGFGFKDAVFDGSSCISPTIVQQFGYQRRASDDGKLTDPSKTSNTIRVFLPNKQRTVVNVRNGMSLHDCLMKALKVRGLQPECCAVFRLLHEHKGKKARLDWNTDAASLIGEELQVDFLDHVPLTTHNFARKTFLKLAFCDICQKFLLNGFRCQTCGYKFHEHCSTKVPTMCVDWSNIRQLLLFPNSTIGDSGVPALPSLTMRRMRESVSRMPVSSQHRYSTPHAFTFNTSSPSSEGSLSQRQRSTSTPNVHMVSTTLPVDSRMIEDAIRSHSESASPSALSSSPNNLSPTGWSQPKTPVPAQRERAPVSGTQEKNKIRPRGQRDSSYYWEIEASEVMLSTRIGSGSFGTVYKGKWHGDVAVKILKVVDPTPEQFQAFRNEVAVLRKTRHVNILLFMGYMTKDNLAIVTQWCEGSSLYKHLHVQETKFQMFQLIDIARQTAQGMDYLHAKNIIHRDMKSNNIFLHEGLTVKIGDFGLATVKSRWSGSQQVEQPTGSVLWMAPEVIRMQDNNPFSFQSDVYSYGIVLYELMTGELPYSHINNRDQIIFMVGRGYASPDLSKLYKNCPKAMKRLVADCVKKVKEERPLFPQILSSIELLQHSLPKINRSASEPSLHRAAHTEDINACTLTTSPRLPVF

SMILES: COc1cc2ncnc(Oc3cccc(NC(=O)Nc4cc(C(C)(C)C)on4)c3)c2cc1O[C@H]1CCN(C)C1 [Ex 109, (S)-1-(5-tert-butylisoxazol-3-yl)-3-(3-(7-methoxy-6-(1-methylpyrrolidin-3-yloxy)quinazolin-4-yloxy)phenyl)urea]
- Kd (wild type BRAF kinase [1]): 250 to 500 nM
- Kd (RAF kinases): < 250 nM
- Kd (mutant BRAF kinase): < 250 nM
- S35 ([2]; 290 distinct kinases): D (D > 0.40)

SMILES: COc1cc2ncnc(Oc3cccc(NC(=O)Nc4cc(C(F)(F)F)n(C)n4)c3)c2cc1OC [Ex 165, 1-[3-(6,7-dimethoxyquinazolin-4-yloxy)phenyl]-3-[1-methyl-5-(trifluoromethyl)-1H-pyrazol-3-yl]urea]
- Kd (RAF kinases): < 250 nM
- Kd (mutant BRAF kinase): < 250 nM
- S35 [2, 4]: C* (0.20 < C ≦ 0.40)
- Kd (wild type BRAF kinase [3]): < 250 nM

SMILES: COc1cc2ncnc(Oc3cccc(NC(=O)Nc4cc(C(F)(F)F)ccn4)c3)c2cc1OC [Ex 141, 1-(3-(6,7-dimethoxyquinazolin-4-yloxy)phenyl)-3-(4-(trifluoromethyl)pyridin-2-yl)urea]
- Kd (RAF kinases): < 250 nM
- Kd (mutant BRAF kinase): < 250 nM
- S35 ([2]; 290 distinct kinases): C (0.20 < C ≦ 0.40)
- Kd (wild type BRAF kinase [3]): < 250 nM

SMILES: COc1cc2ncnc(Oc3cccc(NC(=O)Nc4cc(C(F)(F)F)nn4C)c3)c2cc1OC [Ex 164, 1-[3-(6,7-dimethoxyquinazolin-4-yloxy)phenyl]-3-[1-methyl-3-(trifluoromethyl)-1H-pyrazol-5-yl]urea]
- Kd (RAF kinases): < 250 nM
- Kd (mutant BRAF kinase): < 250 nM
- S35 [2, 4]: C* (0.20 < C ≦ 0.40)
- Kd (wild type BRAF kinase [3]): < 250 nM

SMILES: COc1cc2ncnc(Sc3cccc(NC(=O)Nc4cc(C(F)(F)F)nn4C)c3)c2cc1OC [Ex 193, 1-[3-(6,7-dimethoxyquinazolin-4-ylthio)phenyl]-3-[1-methyl-3-(trifluoromethyl)-1H-pyrazol-5-yl]urea]
- Kd (RAF kinases): < 250 nM
- Kd (mutant BRAF kinase): < 250 nM
- S35 [2, 4]: D* (D > 0.40)
- Kd (wild type BRAF kinase [3]): < 250 nM

SMILES: COc1cc2ncnc(Sc3cccc(NC(=O)Nc4cc(C(C)(CF)CF)nn4-c4ccccc4)c3)c2cc1OC [Ex 196, 1-[3-(1,3-difluoro-2-methylpropan-2-yl)-1-phenyl-1H-pyrazol-5-yl]-3-[3-(6,7-dimethoxyquinazolin-4-ylthio)phenyl]urea]
- Kd (RAF kinases): > 1000 nM
- Kd (mutant BRAF kinase): > 1000 nM
- S35 [2, 4]: D* (D > 0.40)
- Kd (wild type BRAF kinase [3]): > 1000 nM

SMILES: COc1cc2nc(Cl)nc(Sc3cccc(NC(=O)Nc4cc(C(C)(C)C)on4)c3)c2cc1OC [Ex 89, 1-(5-tert-butylisoxazol-3-yl)-3-(3-(2-chloro-6,7-dimethoxyquinazolin-4-ylthio)phenyl)urea]
- Kd (RAF kinases): > 1000 nM
- Kd (mutant BRAF kinase): > 1000 nM
- S35 ([2]; 290 distinct kinases): A (A ≦ 0.10)
- Kd (wild type BRAF kinase [3]): > 1000 nM

SMILES: COc1cc2ncnc(Oc3cccc(NC(=O)Nc4cc(C(C)(C)C)on4)c3)c2cc1OCCCN1CCOCC1 [Ex 22, 1-(5-tert-butylisoxazol-3-yl)-3-(3-(7-methoxy-6-(3-morpholinopropoxy)quinazolin-4-yloxy)phenyl)urea]
- Kd (RAF kinases): < 250 nM
- Kd (mutant BRAF kinase): < 250 nM
- S35 ([2]; 290 distinct kinases): D (D > 0.40)
- Kd (wild type BRAF kinase [3]): < 250 nM

SMILES: COCC(C)(C)c1cc(NC(=O)Nc2cccc(Oc3ncnc4cc(OC)c(OC)cc34)c2)on1 [Ex 128, 1-(3-(6,7-dimethoxyquinazolin-4-yloxy)phenyl)-3-(3-(1-methoxy-2-methylpropan-2-yl)isoxazol-5-yl)urea]
- Kd (RAF kinases): > 1000 nM
- Kd (mutant BRAF kinase): < 250 nM
- S35 [2, 4]: C* (0.20 < C ≦ 0.40)
- Kd (wild type BRAF kinase [3]): > 1000 nM

SMILES: COc1cc2c(Oc3cccc(NC(=O)Nc4cc(C(C)(C)C)on4)c3)ncnc2cc1OC1CCN(CC(F)F)CC1 [Ex 105, 1-(5-tert-butylisoxazol-3-yl)-3-(3-{7-[1-(2,2-difluoroethyl)piperidin-4-yloxy]-6-methoxyquinazolin-4-yloxy}phenyl)urea]
- Kd (RAF kinases): > 1000 nM
- Kd (mutant BRAF kinase): > 1000 nM
- S35 [2, 4]: C* (0.20 < C ≦ 0.40)
- Kd (wild type BRAF kinase [3]): > 1000 nM

SMILES: COc1cc2ncnc(Oc3cccc(NC(=O)Nc4cc(C(C)(C)F)on4)c3)c2cc1OC [Ex 136, 1-(3-(6,7-dimethoxyquinazolin-4-yloxy)phenyl)-3-(5-(2-fluoropropan-2-yl)isoxazol-3-yl)urea]
- Kd (RAF kinases): < 250 nM
- Kd (mutant BRAF kinase): < 250 nM
- S35 [2, 4]: C* (0.20 < C ≦ 0.40)
- Kd (wild type BRAF kinase [3]): < 250 nM

SMILES: COc1cc2ncnc(Sc3cccc(NC(=O)Nc4cc(C(C)C)on4)c3)c2cc1OC [Ex 134, 1-(3-(6,7-dimethoxyquinazolin-4-ylthio)phenyl)-3-(5-isopropylisoxazol-3-yl)urea]
- Kd (RAF kinases): < 250 nM
- Kd (mutant BRAF kinase): < 250 nM
- S35 [2, 4]: C* (0.20 < C ≦ 0.40)
- Kd (wild type BRAF kinase [3]): < 250 nM
